Source: patent US9284528B2, “Use of stem cell conditioned medium to inhibit oxidation for anti-aging skin” (GROWGENE BIOTECH INC., priority 2014, dated 2016)
pIC50: −log10 of the molar value.

Experiment: ABTS free radicals scavenging assay (antioxidant assay kit, Cayman)
Type: biochemical
Conditions: 0.0625-1 mM tested; 5 minutes room temperature; absorbance 750 nm
Experimental: An antioxidant assay kit (Cayman) was used for this assay according to the instructions. Each of samples including 10 μl of 6.25%˜100% conditioned medium or 0.0625˜1 mM L-ascorbic acid (L-AA) was mixed with 10 μl of metmyoglobin, 150 μl chromogen, and 40 μl hydrogen peroxide for reaction at room temperature for 5 minutes. Because stem cell conditioned medium (CM) is a composite component, a percentage (%) instead of a concentration (mM) is presented as the unit of CM herein.
Referring to FIG. 2A, it is a representative diagram showing the effect of WJMSC-CM on scavenging ABTS free radicals. Various concentration of L-ascorbic acid (L-AA) or stem cell conditioned medium (CM) was mixed with an appropriate amount of ABTS and oxidants for reaction. ABTS has an absorption peak at 750 nm. This assay is based on the ability of antioxidants to reduce ABTS into its colourless form and the extent of decolourisation corresponding to the absorbance reduction of ABTS.

pIC50: 3.09
SMILES: O=C1O[C@H]([C@@H](O)CO)C(O)=C1O [L-ascorbic acid]
